Experimental findings from ChEMBL document CHEMBL1146474, “Design, synthesis, and bioactivities of steroid-linked taxol analogues as potential targeted drugs for prostate and breast cancer” (J Nat Prod, 2004) are described below.

A word on the IC50: it is the concentration needed to halve the response being measured.

Experiment [1] can be described thus: Induction of tubulin assembly at 0.2 uM relative to taxol.
Experiment [2] in a line: Induction of tubulin assembly at 1 uM relative to taxol.
The next experiment deals with A2780. The experiment is described as follows: cells. As to conditions: Homo sapiens, A2780, 48 h.
In the next experiment the test system is PC-3. The experiment is described as follows: cells. Conditions: Homo sapiens, PC-3, 48 h.
Experiment [3] concerns MDA-MB-231. The experiment in a line: cells. As to conditions: Homo sapiens, MDA-MB-231, 48 h.
The subject of experiment [4] is MCF7. The experiment is described as follows: cells. Conditions: Homo sapiens, MCF7, 48 h.
Experiment [5] deals with MDA-MB-231. The experiment in a line: Antiproliferative activity against human MDA-MB-231 cells assessed as inhibition of cell survival after 48 hrs by MTS method. Format: functional.
Experiment [6] deals with MCF7. The experiment is described as follows: Antiproliferative activity against human MCF7 cells assessed as reduction of cell survival after 48 hrs by MTS method. The class given is functional. A general note: Tetrazolium dyes change colour on reduction, which living cells bring about.
The subject of experiment [7] is MCF7. The experiment in a line: Antiproliferative activity against human MCF7 cells assessed as reduction of cell survival after 7 days by MTS method. Format: functional.

Take `CC(=O)O[C@H]1C(=O)[C@@]2(C)[C@H]([C@H](OC(=O)c3ccccc3)[C@]3(O)C[C@H](OC(=O)[C@H](OC(=O)CCC(=O)O[C@@H]4C[C@]5(C)[C@@H](O)CC[C@H]5[C@@H]5CCc6cc(O)ccc6[C@H]54)[C@@H](NC(=O)c4ccccc4)c4ccccc4)C(C)=C1C3(C)C)[C@]1(OC(C)=O)CO[C@@H]1C[C@@H]2O`: the Activity in experiment [1] and in experiment [2] was 60% throughout.

Regarding `CC(=O)O[C@@]12CO[C@@H]1C[C@H](O)[C@@]1(C)C(=O)[C@H](OC(=O)CCC(=O)O[C@@H]3C[C@]4(C)[C@@H](O)CC[C@H]4[C@@H]4CCc5cc(O)ccc5[C@H]43)C3=C(C)[C@@H](OC(=O)[C@H](O)[C@@H](NC(=O)c4ccccc4)c4ccccc4)C[C@@](O)([C@@H](OC(=O)c4ccccc4)[C@H]21)C3(C)C`, the Activity in experiment [1] and in [2] was 100% throughout. Also, the IC50 with A2780 stood at 1900 nM; in the experiment on PC-3 it was 68 nM; in the experiment with MDA-MB-231 [3] it was 304 nM; in the experiment with MCF7 [4] it was 103 nM.

Turning to `CC(=O)O[C@H]1C(=O)[C@]2(C)[C@@H](OC(=O)/C=C/C[C@@H]3C[C@H]4[C@@H]5CCc6cc(O)ccc6[C@H]5CC[C@]4(C)[C@H]3O)C[C@H]3OC[C@@]3(OC(C)=O)[C@H]2[C@H](OC(=O)c2ccccc2)[C@]2(O)C[C@H](OC(=O)[C@H](O)[C@@H](NC(=O)c3ccccc3)c3ccccc3)C(C)=C1C2(C)C`, the Activity in [1] and in experiment [2] was 100% throughout. For the same compound, the IC50 in the experiment with A2780 amounted to 8300 nM; in the experiment with PC-3, 120 nM; in the experiment on MDA-MB-231 [3], 2200 nM; in the experiment on MCF7 [4], 1600 nM.

For `CC(=O)O[C@H]1C(=O)[C@]2(C)[C@@H](OC(=O)CCC(=O)O[C@@H]3C[C@]4(C)[C@@H](O)CC[C@H]4[C@@H]4CCc5cc(O)ccc5[C@H]43)C[C@H]3OC[C@@]3(OC(C)=O)[C@H]2[C@H](OC(=O)c2ccccc2)[C@]2(O)C[C@H](OC(=O)[C@H](O)[C@@H](NC(=O)c3ccccc3)c3ccccc3)C(C)=C1C2(C)C`, the Activity in experiment [1] turned out to be 100%; in experiment [2], 100%; in the experiment with MCF7 [6] it was 20%; with MCF7 [7] it was 70%. In addition, the “inhibition (INH)” value in the experiment on MDA-MB-231 [5] is given as 85%. Also, the IC50 is 2900 nM in the experiment with A2780, 320 nM in the experiment on PC-3, 780 nM in the experiment on MDA-MB-231 [3] and 557 nM in the experiment on MCF7 [4].

Turning to `CC(=O)O[C@H]1C(=O)[C@@]2(C)[C@H]([C@H](OC(=O)c3ccccc3)[C@]3(O)C[C@H](OC(=O)[C@H](OC(=O)/C=C/C[C@@H]4C[C@H]5[C@@H]6CCc7cc(O)ccc7[C@H]6CC[C@]5(C)[C@H]4O)[C@@H](NC(=O)c4ccccc4)c4ccccc4)C(C)=C1C3(C)C)[C@]1(OC(C)=O)CO[C@@H]1C[C@@H]2O`, the Activity in experiment [1] amounted to 45%; in [2], 55%.

Consider `CC(=O)O[C@H]1C(=O)[C@@]2(C)[C@H]([C@H](OC(=O)c3ccccc3)[C@]3(O)C[C@H](OC(=O)[C@H](O)[C@@H](NC(=O)c4ccccc4)c4ccccc4)C(C)=C1C3(C)C)[C@]1(OC(C)=O)CO[C@@H]1C[C@@H]2O` [PACLITAXEL], for which the “inhibition (INH)” value in the experiment on MDA-MB-231 [5] is listed as 85%. Further, the Activity in the experiment with MCF7 [6] is given as 20%; in the experiment with MCF7 [7], 70%.
